# Reference: article PMC6026870, “Selective induction of cancer cell death by VDAC1‐based peptides and their potential use in cancer therapy” (Molecular Oncology, 2018)
# Where “and” joins values, the source holds several entries; their conditions need not be identical. Identical values can stand only once.
# Columns and labels:
# [1] = tested on: A549, MDA‐MB‐231 and U‐87MG xenografts; experiment: TUNEL assay on xenograft tumor sections; type: in vivo, mouse; conditions: TUNEL staining of paraffin sections; no TUNEL‐positive cells in control HBSS‐TTs (Fig. 7A–C)
# Procedure: (§1) U‐87MG cells (3 × 10^6/mouse), A549 cells (5 × 10^6/mouse), or MDA‐MB‐231 cells (3 × 10^6/mouse) were inoculated subcutaneously (s.c.) into the hind leg flanks of athymic 8‐week‐old male nude mice (Envigo, Huntingdon, UK). Tumor size was measured using a digital caliper and volume was calculated, and when reached 50–100 mm^3 for each tumor type, mice were randomly divided into two groups (five mice per group). […] The xenografts were injected (two points, 20 μL per tumor) every two days. Beginning on the day of inoculation, mouse weight and tumor volume were monitored twice a week. Experiments were terminated after 14, 29, or 20 days for U‐87MG‐, MDA‐MB‐231‐, or A549‐based tumors, respectively. The mice were sacrificed and tumors were excised. Half of each tumor was fixed in 4% buffered formaldehyde, paraffin‐embedded, and processed for IHC, while the second half was frozen in liquid nitrogen for immunoblotting and qPCR analyses. These experimental protocols were approved by the Institutional Animal Care and Use Committee of Ben‐Gurion University.
# Paraffin‐embedded‐fixed tumor sections were processed for a TUNEL assay using the DeadEnd Fluorometric TUNEL system according to the manufacturer's instructions. […]
# [2] = tested on: A549‐, MDA‐MB‐231‐, and U‐87MG‐derived tumors; experiment: qPCR of excised xenograft tumors; type: in vivo, mouse
# Procedure: as §1
# Total RNA was isolated from untreated and peptide‐treated tumors (three mice each) using an RNeasy Mini Kit (Qiagen, Hilden, Germany) according to the manufacturer's instructions. Total RNA quality was analyzed using the Agilent RNA 6000 Nano Kit. […] The levels of target genes were normalized relative to β‐actin mRNA levels. Samples were amplified by a 7300 Real‐Time PCR System (Applied Biosystems) for denaturation step of 5 min at 95 °C and 40 cycles using the following PCR parameters: 95 °C for 15 s, 60 °C for 1 min, and 72 °C for 1 min. The copy numbers for each sample were calculated by the CT‐based calibrated standard curve method. The mean fold changes (±SE) of three replicates were calculated.
# A549 cells = experiment: Apoptosis, annexin V–FITC/PI staining and flow cytometry; type: cell-based, human; conditions: A549, 3 h, serum‐free, 37 °C (Figs 5F,G; also MDA‐MB‐231, Fig. S2B,C)
# Procedure: For PI and annexin V–FITC staining, A549 or MDA‐MB‐231 cells, untreated or treated with VDAC1‐based peptides, were collected (1500 g for 5 min), washed, and resuspended in 200 μL binding buffer (10 mM HEPES/NaOH (pH 7.4), 140 mM NaCl, and 2.5 mM CaCl2). Annexin V–FITC staining was performed according to the recommended protocol. Cells were then washed once with binding buffer and resuspended in 200 μL binding buffer, to which PI was added immediately before flow cytometric analysis. At least 10 000 events were collected, recorded on a dot plot, and analyzed by flow cytometer. Acridine orange/ethidium bromide staining was carried as described previously (Zaid et al., 2005), with cells visualized by fluorescence microscopy (Olympus LX2‐KSP, Tokyo, Japan), and images were captured with a CCD camera. About 200 cells were counted for each experiment.
# [3] = tested on: MDA‐MB‐231 cell xenograft; experiment: Subcutaneous xenograft mouse model, tumor growth; type: in vivo; conditions: MDA‐MB‐231 s.c. xenograft, nude mice; intratumoral 40 or 60 μM, 20 μL per tumor every two days; 29 days; vs HBSS control; n = 5
# Procedure: as §1
# U‐87MG cell xenograft = experiment: Subcutaneous xenograft mouse model, tumor growth; type: in vivo; conditions: U‐87MG s.c. xenograft, nude mice; intratumoral 40 or 60 μM, 20 μL per tumor every two days; 14 days; vs HBSS control; n = 5
# Procedure: as §1
# A549 cell xenograft = experiment: Subcutaneous xenograft mouse model, tumor growth; type: in vivo; conditions: A549 s.c. xenograft, nude mice; intratumoral 40 or 60 μM, 20 μL per tumor every two days; 20 days; vs HBSS control; n = 5
# Procedure: as §1
# [4] = treated tumors vs control, n = 3 (Fig. 7D,E)
smiles,measurement,setting,value
CC[C@H](C)[C@H](NC(=O)[C@H](Cc1ccc(O)cc1)NC(=O)[C@@H]1CCCN1C(=O)[C@H](CCCNC(=N)N)NC(=O)[C@H](Cc1c[nH]cn1)NC(=O)[C@@H](CO)NC(=O)[C@@H](Cc1c[nH]c2ccccc12)NC(=O)[C@H](NC(=O)[C@@H](Cc1c[nH]c2ccccc12)NC(=O)[C@@H](CCC(=O)O)NC(=O)[C@@H](CCCCN)NC(=O)[C@@H](CCCCN)NC(=O)[C@@H](CC(C)C)NC(=O)[C@@H](CCC(=O)O)NC(=O)[C@H](NC(=O)[C@@H](C)NC(=O)[C@H](NC(=O)[C@@H](CC(N)=O)NC(=O)[C@@H](CC(C)C)NC(=O)[C@@H](C)NC(=O)[C@@H](Cc1c[nH]c2ccccc12)NC(=O)[C@H](NC(=O)[C@@H](C)NC(=O)CNC(=O)[C@@H](CC(N)=O)NC(=O)[C@@H](CO)NC(=O)[C@@H](CC(N)=O)NC(=O)[C@@H](CCCCN)NC(=O)[C@@H](Cc1c[nH]c2ccccc12)NC(=O)[C@H](NC(=O)[C@@H](Cc1c[nH]c2ccccc12)NC(=O)[C@H](N)CCCCN)[C@H](C)O)[C@H](C)O)C(C)C)[C@H](C)O)[C@H](C)O)C(=O)N[C@@H](C)C(=O)N[C@@H](Cc1c[nH]cn1)C(=O)O [R‐Tf‐D‐LP4],TUNEL‐positive cells in treated tumors,[1],the majority of the cells were TUNEL‐positive
same,"decrease in expression of Glut‐1, HK‐I and GAPDH","[2]; A549, MDA‐MB‐231, U‐87MG tumors vs control (Fig. 8)",three‐ to fourfold
same,"p53 expression levels, elevation","[2]; A549‐, MDA‐MB‐231‐, U‐87MG‐derived tumors, n = 3 (Fig. 7D–F)",over two‐ to fivefold
same,Caspase‐8 overexpression,[2]; [4],two‐ to threefold
same,"SMAC/Diablo expression levels, increase",[2]; [4],two‐ to fivefold
same,caspase‐3 overexpression,[2]; [4],two‐ to threefold
same,"Cyto c expression, increase","[2]; treated tumors vs control, n = 3 (Fig. 7D,F)",two‐ to fourfold
same,apoptotic cell death (annexin V–FITC and PI staining),A549 cells,over 90%
same,decrease in tumor volume,[3],~ 80% and 70–80%
same,decrease in tumor volume,U‐87MG cell xenograft,~ 80% and 70–80%
same,decrease in tumor volume,A549 cell xenograft,~ 80% and 70–80%
